Patent publication US20260125334A1, “TREATMENT PROCESS FOR PFAS-CONTAINING COMPOUNDS” (priority 2023, published 2026)

Experiments:
[1] = PFAS removal kinetics in PFAS-contaminated field sample, LC-QTOF (Example 6); details: 0.01% treatment; aliquots at 0, 5, 10, 30, 90 minutes
Experimental: To determine PFAS removal kinetics, a PFAS-contaminated field sample was treated with dimethyldioctadecylammonium bromide. Aliquots were pulled at timed intervals and tested for remaining PFAS content. To a polypropylene bottle, 1000 mL of approximately 4 ppm PFAS-contaminated water was added to a 1 L HDPE bottle with a Teflon stir bar. The sample was stirred at 500 RPM for 10 minutes prior to the start of the experiment. To a 50 mL centrifuge tube, 20 mL aliquots were collected at 0, 5, 10, 30, and 90 minutes following treatment with 0.01%. Each sample was centrifuged to remove any remaining solids and passed through 0.45 micron filter prior to analysis by LC-QTOF. […] Subsequent PFAS removal was noted but minimal.

[2] = Solubility in water
[3] = Effect of treatment rate on PFAS removal from synthetic AFFF wastewater, NMR (Example 4)
Experimental: Dimethyldimyristylammonium Bromide was tested in synthetic AFFF wastewater to determine if removal efficiency of the PFAS is affected by treatment rate. The treatment compound was added at 2%, 3%, and 4% w/w loading to AFFF wastewater. Solids were separated out via centrifugation and the solution was analyzed by NMR. […] FIG. 5 is the NMR spectra of each solution after treatment. […] As quat loading increased, the total area under the peaks was reduced. In the sample with 4% dimethyldioctadecylammonium bromide loading, total peak area was reduced by 90%.

[4] = Short chain PFAS standard treated with 2% quat: all PFAS (Example 5)
Experimental: A standard with approximately 1000 ppt each of PFOA, perfluoro-n-pentanoic acid (PFPeA), and perfluorobutane sulfonic acid (PFBS) was prepared via serial dilution and treated with 2% dimethyldioctadecylammonium bromide in technical triplicate. Samples were centrifuged and the liquid was filtered into a new centrifuge tube using a 0.45 micron syringe filter. Table 2 indicates the concentration of each PFAS after treatment.

| Concentration of remaining PFAS as concentration of quaternary ammonium compound increased ([3]; 2%, 3%, and 4% w/w loading) | SMILES | Remaining PFAS content between the T=0 and T=5 sample [1] | Solubility in water [2] | Reduction of total NMR peak area ([3]; 4% w/w loading) | Reduction in all PFAS concentrations [4] |
| --- | --- | --- | --- | --- | --- |
|  | CCCCCCCCCCCCCCCCCC[N+](C)(C)CCCCCCCCCCCCCCCCCC.[Br-] [Dimethyldioctadecylammonium bromide, dimethyldioctadecylammonium bromide] | rapid decrease | nearly insoluble in water | 90% | > 99.87% |
| decreased | CCCCCCCCCCCCCC[N+](C)(C)CCCCCCCCCCCCCC.[Br-] [Dimethyldimyristylammonium bromide, dimethyldimyristylammonium bromide] |  |  |  |  |
